Patent US9593107B2, “Dihydroquinoline-2-one derivatives” (Hoffmann-La Roche Inc., priority 2014, dated 2017)
Each block holds one compound with its values, some of them ahead of it.

How the values were obtained:
human CYP11B2 = molecular target: T1, human CYP11B2 (Homo sapiens, UniProt P19099); assay: G-402 cellular enzyme assay, human CYP11B2 (aldosterone release, HTRF); assay type: cell-based; conditions: G-402 cells expressing human CYP11B2; 1 μM Deoxycorticosterone
T1 construct: expressed in transfected cells
T1 sequence (P19099 25-503): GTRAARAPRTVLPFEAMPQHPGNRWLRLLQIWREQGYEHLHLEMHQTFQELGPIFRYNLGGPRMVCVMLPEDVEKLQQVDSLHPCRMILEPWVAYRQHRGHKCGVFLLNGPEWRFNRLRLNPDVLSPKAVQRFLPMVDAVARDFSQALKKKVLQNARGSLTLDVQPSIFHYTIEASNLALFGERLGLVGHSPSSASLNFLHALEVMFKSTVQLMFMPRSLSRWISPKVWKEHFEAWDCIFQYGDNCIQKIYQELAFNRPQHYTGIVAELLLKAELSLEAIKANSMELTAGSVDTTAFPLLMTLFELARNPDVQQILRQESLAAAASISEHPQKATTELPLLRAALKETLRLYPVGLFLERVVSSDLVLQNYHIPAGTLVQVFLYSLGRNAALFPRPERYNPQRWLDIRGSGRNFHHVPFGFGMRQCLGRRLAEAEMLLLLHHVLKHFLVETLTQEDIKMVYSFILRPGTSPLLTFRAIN
From the text: (§1) Herein we identified the use of the G-402 cell line as a host cell to ectopically express (transiently or stably) enzymes of the CYP11 family. Specifically we developed stable G-402 cells expressing ectopically human CYP11B1, human CYP11B2, human CYP11A1, cynmolgus CYP11B1 or cynomolgus CYP11B2 enzyme activity. Importantly the identified cell line G-402 expresses co-factors (adrenodoxin and adrenodoxin reductase) important for the activity of the CYP11 family and no relevant enzyme activity of the CYP11 family (in comparison to H295R cells) was detected in these cells. Therefore the G-402 cell line is uniquely suited as a host cell for the ectopic expression of enzymes from the CYP11 family.
(§2) The expression plasmids contains the ORF for either human/cyno CYP11B1 or CYP11B2 under the control of a suitable promoter (CMV-promoter) and a suitable resistance marker (neomycin). Using standard techniques the expression plasmid is transfected into G-402 cells and these cells are then selected for expressing the given resistance markers. Individual cell-clones are then selected and assessed for displaying the desired enzymatic activity using 11-Deoxycorticosterone (Cyp11B2) or 11-Deoxycortisol (Cyp11B1) as a substrate.
(§3) G-402 cells expressing CYP11 constructs were established as described above and maintained in McCoy's 5a Medium Modified, ATCC Catalog No. 30-2007 containing 10% FCS and 400 μg/ml G418 (Geneticin) at 37° C. under an atmosphere of 5% CO2/95% air.
(§4) Cellular enzyme assays were performed in DMEM/F12 medium containing 2.5% charcoal treated FCS and appropriate concentration of substrate (0.3-10 uM 11-Deoxycorticosterone, 11-Deoxycortisol or Corticosterone). For assaying enzymatic activity, cells were plated onto 96 well plates and incubated for 16 h. An aliquot of the supernatant is then transferred and analyzed for the concentration of the expected product (Aldosterone for CYP11B2; Cortisol for CYP11B1). The concentrations of these steroids can be determined using HTRF assays from CisBio analyzing either Aldosterone or Cortisol.
(§5) Inhibition of the release of produced steroids can be used as a measure of the respective enzyme inhibition by test compounds added during the cellular enzyme assay. The dose dependent inhibition of enzymatic activity by a compound is calculated by means of plotting added inhibitor concentrations (x-axes) vs. measured steroid/product level (y-axes). The inhibition is then calculated by fitting the following 4-parameter sigmoidal function (Morgan-Mercer-Flodin (MMF) model) to the raw data points using the least squares method:
(§6) [formula] wherein, A is the maximum y value, B is the EC50 factor determined using XLFit, C is the minimum y value and D is the slope value.
(§7) EC50 values for compounds claimed herein were tested with the G402-based assay system described. Cyp11B2 enzyme activity was tested in presence of 1 μM Deoxycorticosterone and variable amounts of inhibitors; Cyp11B1 enzyme activity was tested in presence of 1 μM Deoxycortisol and variable amounts of inhibitors.

human CYP11B1 = molecular target: T2, human CYP11B1 (Homo sapiens, UniProt P15538); assay: G-402 cellular enzyme assay, human CYP11B1 (cortisol release, HTRF); assay type: cell-based; conditions: G-402 cells expressing human CYP11B1; 1 μM Deoxycortisol
T2 construct: expressed in transfected cells
T2 sequence (P15538 25-503): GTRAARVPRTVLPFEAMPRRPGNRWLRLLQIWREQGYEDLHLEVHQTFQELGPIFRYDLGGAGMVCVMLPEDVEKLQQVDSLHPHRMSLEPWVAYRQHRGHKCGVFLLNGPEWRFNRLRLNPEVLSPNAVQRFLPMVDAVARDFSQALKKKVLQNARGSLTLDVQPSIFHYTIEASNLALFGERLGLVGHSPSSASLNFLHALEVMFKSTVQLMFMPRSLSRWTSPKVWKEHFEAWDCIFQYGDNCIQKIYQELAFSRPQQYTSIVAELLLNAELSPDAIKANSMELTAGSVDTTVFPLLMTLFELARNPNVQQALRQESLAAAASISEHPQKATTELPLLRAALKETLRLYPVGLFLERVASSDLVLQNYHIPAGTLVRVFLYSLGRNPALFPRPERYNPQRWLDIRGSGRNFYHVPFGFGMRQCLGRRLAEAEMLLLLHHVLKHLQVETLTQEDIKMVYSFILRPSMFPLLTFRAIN
From the text: as §1, §2, §3, §4, §5, §6, §7

[1] = test system: rats with experimental heart failure; conditions: rat, in vivo; cited from earlier work
[2] = test system: rat model of chronic kidney disease; conditions: cited from earlier work; for cardiac and aortic medial hypertrophy / renal effects of angiotensin II and high salt (albuminuria, azotemia, renovascular hypertrophy, glomerular injury, PAI-1 and osteopontin mRNA, tubulointerstitial fibrosis): rat, in vivo
[3] = test system: patients with primary aldosteronism; conditions: oral; cited from earlier work

EC50 (human CYP11B2): 16.5 nM
EC50 (human CYP11B1): 2140 nM
SMILES: Cc1c(Cn2c(C)cccc2=O)cncc1-c1cc2c(cc1F)N(C)C(=O)CC2 [Example 24, 7-Fluoro-1-methyl-6-[4-methyl-5-(6-methyl-2-oxo-2H-pyridin-1-ylmethyl)-pyridin-3-yl]-3,4-dihydro-1H-quinolin-2-one]

EC50 (human CYP11B2): 2.1 nM
EC50 (human CYP11B1): 234 nM
SMILES: Cc1c(Cn2c(Cl)cccc2=O)cncc1-c1cc2c(cc1F)N(C)C(=O)CC2 [Example 25, 6-[5-(6-Chloro-2-oxo-2H-pyridin-1-ylmethyl)-4-methyl-pyridin-3-yl]-7-fluoro-1-methyl-3,4-dihydro-1H-quinolin-2-one]

EC50 (human CYP11B2): 1 nM
EC50 (human CYP11B1): 44.8 nM
SMILES: Cc1c(Cn2cccc(F)c2=O)cncc1-c1cc2c(cc1F)N(C)C(=O)CC2 [Example 26, 7-Fluoro-6-[5-(3-fluoro-2-oxo-2H-pyridin-1-ylmethyl)-4-methyl-pyridin-3-yl]-1-methyl-3,4-dihydro-1H-quinolin-2-one]

EC50 (human CYP11B2): 1 nM
EC50 (human CYP11B1): 91.3 nM
SMILES: Cc1c(Cn2c(F)cccc2=O)cncc1-c1cc2c(cc1F)N(C)C(=O)CC2 [Example 27, 7-Fluoro-6-[5-(6-fluoro-2-oxo-2H-pyridin-1-ylmethyl)-4-methyl-pyridin-3-yl]-1-methyl-3,4-dihydro-1H-quinolin-2-one]

SMILES: N#Cc1ccc([C@H]2CCCc3cncn32)cc1 [FAD286]
blood pressure and cardiovascular function and structure [1]: improved
kidney function and morphology [1]: improve
plasma aldosterone ([2]; following 4 weeks of treatment): reduced
cardiac and aortic medial hypertrophy [2]: attenuated
renal effects of angiotensin II and high salt (albuminuria, azotemia, renovascular hypertrophy, glomerular injury, PAI-1 and osteopontin mRNA, tubulointerstitial fibrosis) [2]: prevented

SMILES: N#Cc1ccc([C@H]2CCc3cncn32)c(F)c1 [LCI699]
blood pressure [3]: mildly decreased
circulating aldosterone levels [3]: significantly lower
hypokalemia [3]: corrected
selectivity (effects on the glucocorticoid axis) [3]: poor selectivity

SMILES: CC(=O)S[C@@H]1CC2=CC(=O)CC[C@]2(C)[C@H]2CC[C@@]3(C)[C@@H](CC[C@@]34CCC(=O)O4)[C@H]12 [spironolactone]
aldosterone ([2]; at 4 and 8 weeks of treatment): increased
angiotensin II and salt-stimulated PAI-1 mRNA expression ([2]; in the aorta and the heart): enhanced
cardiac and aortic medial hypertrophy [2]: attenuated
renal effects of angiotensin II and high salt (albuminuria, azotemia, renovascular hypertrophy, glomerular injury, PAI-1 and osteopontin mRNA, tubulointerstitial fibrosis) [2]: prevented
